In PubChem BioAssay AID1259407 (Chemical Carcinogenesis Research Information System (CCRIS), 2018) one finds mutagenic call data, which are given here for six compounds.

This data set deals with CCRIS mutagenicity, Ames/micronucleus/aberration tests. Kind of data set: CCRIS mutagenicity studies.
The mark [1] stands for this setting: Test System: AMES SALMONELLA TYPHIMURIUM, Strain/Indicator: TA100, Metabolic Activation: NONE, Method: PREINCUBATION

Active and inactive are the calls of the source. The rule behind the calls is not given here.

For the compound `CCCCCCCC(=O)O`, the mutagenic call is “inactive; negative” (Test System: AMES SALMONELLA TYPHIMURIUM, Strain/Indicator: TA97, Metabolic Activation: HAMSTER, LIVER, S-9, AROCLOR 1254 (10%), Method: PREINCUBATION); “inactive; negative” (Test System: AMES SALMONELLA TYPHIMURIUM, Strain/Indicator: TA97, Metabolic Activation: HAMSTER, LIVER, S-9, AROCLOR 1254 (30%), Method: PREINCUBATION); “inactive; negative” (Test System: AMES SALMONELLA TYPHIMURIUM, Strain/Indicator: TA97, Metabolic Activation: NONE, Method: PREINCUBATION); “inactive; negative” (Test System: AMES SALMONELLA TYPHIMURIUM, Strain/Indicator: TA97, Metabolic Activation: RAT, LIVER, S-9, AROCLOR 1254 (10%), Method: PREINCUBATION); “inactive; negative” (Test System: AMES SALMONELLA TYPHIMURIUM, Strain/Indicator: TA97, Metabolic Activation: RAT, LIVER, S-9, AROCLOR 1254 (30%), Method: PREINCUBATION); “inactive; negative” (Test System: AMES SALMONELLA TYPHIMURIUM, Strain/Indicator: TA98, Metabolic Activation: HAMSTER, LIVER, S-9, AROCLOR 1254 (10%), Method: PREINCUBATION). The mutagenic call (Test System: AMES SALMONELLA TYPHIMURIUM, Strain/Indicator: TA98, Metabolic Activation: HAMSTER, LIVER, S-9, AROCLOR 1254 (30%), Method: PREINCUBATION) is “inactive; negative”; the mutagenic call (Test System: AMES SALMONELLA TYPHIMURIUM, Strain/Indicator: TA98, Metabolic Activation: NONE, Method: PREINCUBATION) is “inactive; negative”; the mutagenic call (Test System: AMES SALMONELLA TYPHIMURIUM, Strain/Indicator: TA98, Metabolic Activation: RAT, LIVER, S-9, AROCLOR 1254 (10%), Method: PREINCUBATION) was “inactive; negative”; the mutagenic call (Test System: AMES SALMONELLA TYPHIMURIUM, Strain/Indicator: TA98, Metabolic Activation: RAT, LIVER, S-9, AROCLOR 1254 (30%), Method: PREINCUBATION) was “inactive; negative”; the mutagenic call (Test System: AMES SALMONELLA TYPHIMURIUM, Strain/Indicator: TA100, Metabolic Activation: HAMSTER, LIVER, S-9, AROCLOR 1254 (10%), Method: PREINCUBATION) is “inactive; negative”; the mutagenic call (Test System: AMES SALMONELLA TYPHIMURIUM, Strain/Indicator: TA100, Metabolic Activation: HAMSTER, LIVER, S-9, AROCLOR 1254 (30%), Method: PREINCUBATION) is “inactive; negative”. The mutagenic call is “inactive; negative” under setting [1]; “inactive; negative” (Test System: AMES SALMONELLA TYPHIMURIUM, Strain/Indicator: TA100, Metabolic Activation: RAT, LIVER, S-9, AROCLOR 1254 (10%), Method: PREINCUBATION); “inactive; negative” (Test System: AMES SALMONELLA TYPHIMURIUM, Strain/Indicator: TA100, Metabolic Activation: RAT, LIVER, S-9, AROCLOR 1254 (30%), Method: PREINCUBATION); “inactive; negative” (Test System: AMES SALMONELLA TYPHIMURIUM, Strain/Indicator: TA1535, Metabolic Activation: HAMSTER, LIVER, S-9, AROCLOR 1254 (10%), Method: PREINCUBATION); “inactive; negative” (Test System: AMES SALMONELLA TYPHIMURIUM, Strain/Indicator: TA1535, Metabolic Activation: HAMSTER, LIVER, S-9, AROCLOR 1254 (30%), Method: PREINCUBATION); “inactive; negative” (Test System: AMES SALMONELLA TYPHIMURIUM, Strain/Indicator: TA1535, Metabolic Activation: NONE, Method: PREINCUBATION). Moreover, the mutagenic call runs as follows: (Test System: AMES SALMONELLA TYPHIMURIUM, Strain/Indicator: TA1535, Metabolic Activation: RAT, LIVER, S-9, AROCLOR 1254 (10%), Method: PREINCUBATION) “inactive; negative”; (Test System: AMES SALMONELLA TYPHIMURIUM, Strain/Indicator: TA1535, Metabolic Activation: RAT, LIVER, S-9, AROCLOR 1254 (30%), Method: PREINCUBATION) “inactive; negative”; (Test System: AMES SALMONELLA TYPHIMURIUM, Strain/Indicator: TA1537, Metabolic Activation: HAMSTER, LIVER, S-9, AROCLOR 1254 (10%), Method: PREINCUBATION) “inactive; negative”; (Test System: AMES SALMONELLA TYPHIMURIUM, Strain/Indicator: TA1537, Metabolic Activation: HAMSTER, LIVER, S-9, AROCLOR 1254 (30%), Method: PREINCUBATION) “inactive; negative”; (Test System: AMES SALMONELLA TYPHIMURIUM, Strain/Indicator: TA1537, Metabolic Activation: NONE, Method: PREINCUBATION) “inactive; negative”; (Test System: AMES SALMONELLA TYPHIMURIUM, Strain/Indicator: TA1537, Metabolic Activation: RAT, LIVER, S-9, AROCLOR 1254 (10%), Method: PREINCUBATION) “inactive; negative”. Besides, the mutagenic call (Test System: AMES SALMONELLA TYPHIMURIUM, Strain/Indicator: TA1537, Metabolic Activation: RAT, LIVER, S-9, AROCLOR 1254 (30%), Method: PREINCUBATION) is “inactive; negative”.

Take `BrCc1c2ccccc2c2ccc3cccc4ccc1c2c43`: the mutagenic call is “active; positive” (Test System: AMES SALMONELLA TYPHIMURIUM, Strain/Indicator: TA98, Metabolic Activation: NONE, Method: STANDARD PLATE) and “active; positive” (Test System: AMES SALMONELLA TYPHIMURIUM, Strain/Indicator: TA100, Metabolic Activation: NONE, Method: STANDARD PLATE).

Take `COc1nsc2c(N)cccc12`: where the note is “Test System: AMES SALMONELLA TYPHIMURIUM, Strain/Indicator: TA98, Metabolic Activation: S-9, Method: STANDARD PLATE”, the mutagenic call is “active; positive”.

Turning to `Fc1ccc(F)c2c1ccc1ncccc12`, the mutagenic call (Test System: AMES SALMONELLA TYPHIMURIUM, Strain/Indicator: TA100, Metabolic Activation: RAT, LIVER, S-9, PHENOBARBITAL AND 5,6-BENZOFLAVONE, Method: PREINCUBATION) is “active; positive”.

As to `NCCc1c[nH]c2ccc(O)cc12`, the mutagenic call under setting [1] was “inactive; negative”.

With `FC(F)C(F)C(F)(F)F` (stereo not given), the mutagenic call is “inactive; negative” (Test System: AMES SALMONELLA TYPHIMURIUM, Strain/Indicator: TA97, Metabolic Activation: NONE, Method: CLOSED GLASS VESSEL); “inactive; negative” (Test System: AMES SALMONELLA TYPHIMURIUM, Strain/Indicator: TA97, Metabolic Activation: RAT LIVER S-9, AROCLOR 1254, Method: CLOSED GLASS VESSEL); “inactive; negative” (Test System: AMES SALMONELLA TYPHIMURIUM, Strain/Indicator: TA98, Metabolic Activation: NONE, Method: CLOSED GLASS VESSEL); “inactive; negative” (Test System: AMES SALMONELLA TYPHIMURIUM, Strain/Indicator: TA98, Metabolic Activation: RAT LIVER S-9, AROCLOR 1254, Method: CLOSED GLASS VESSEL); “inactive; negative” (Test System: AMES SALMONELLA TYPHIMURIUM, Strain/Indicator: TA100, Metabolic Activation: NONE, Method: CLOSED GLASS VESSEL); “inactive; negative” (Test System: AMES SALMONELLA TYPHIMURIUM, Strain/Indicator: TA100, Metabolic Activation: RAT LIVER S-9, AROCLOR 1254, Method: CLOSED GLASS VESSEL). Further, the mutagenic call is “inactive; negative” (Test System: AMES SALMONELLA TYPHIMURIUM, Strain/Indicator: TA1535, Metabolic Activation: NONE, Method: CLOSED GLASS VESSEL); “inactive; negative” (Test System: AMES SALMONELLA TYPHIMURIUM, Strain/Indicator: TA1535, Metabolic Activation: RAT LIVER S-9, AROCLOR 1254, Method: CLOSED GLASS VESSEL); “inactive; negative” (Test System: ESCHERICHIA COLI, Strain/Indicator: WP2 UVR A, Metabolic Activation: NONE, Method: CLOSED GLASS VESSEL); “inactive; negative” (Test System: ESCHERICHIA COLI, Strain/Indicator: WP2 UVR A, Metabolic Activation: RAT LIVER S-9, AROCLOR 1254, Method: CLOSED GLASS VESSEL).
